Patent US9434687B2, “Detection of synthetic cannabinoids” (priority 2011, dated 2016)

Key:
Format in all cases: binding, sheep
[1] = tested on: IgG fraction of antiserum raised to Immunogen II; assay: Competitive ELISA, antibody RS1833B12 to Immunogen II, tracer ESC4555 (Example 36)
[2] = tested on: antiserum raised to Immunogen II (Hapten B-BTG); assay: Competitive ELISA microtiter plate assay, antiserum raised to Immunogen II, conjugate Hapten A-HRP (Example 19)
Protocol: Aqueous solutions of the immunogens prepared in examples 5 and 13 were formulated with Freund's Complete Adjuvant (FCA) to form emulsions consisting of 2 mg/ml Immunogen I and 2 mg/ml of Immunogen II in 50% (v/v) FCA. Three sheep were immunised with each emulsion (1° immunisations), 0.25 ml being intramuscularly injected at four sites in the rump of each animal. Subsequent immunisations (boosts 2-8) contained 1 mg/ml Immunogen I and 1 mg/ml Immunogen II. All boosts were emulsified in 50% (v/v) Freund's Incomplete Adjuvant (FIA) and administered to the appropriate sheep in the same manner as the 1° immunisations, at monthly intervals. Blood sampling took place 7-14 days after each boost. Each sample was processed to produce antiserum, which was further purified by caprylic acid and ammonium sulphate precipitation to yield an immunoglobulin (Ig) fraction. The Ig fraction was evaluated by competitive ELISA microtiter plate assay, as described in example 19 below.
(§1) (a) The wells of an enhanced binding 96 well polystyrene microtiter plate were coated with the Ig fraction of the antiserum raised to Immunogen I (Hapten A-BTG—example 5) and diluted in 10 mM Tris, pH8.5 (125 μl/well). The appropriate antibody coating concentration was determined using standard ELISA checkerboard techniques. The plate was incubated for 2 hours at 37° C., washed 4 times over a 10-minute period with Tris buffered saline containing Tween 20 (TBST) and tapped dry. Standard solutions of JWH synthetic cannabinoids, metabolites and selected molecules were prepared in TBST and 50 μl of each was added to the appropriate wells. 75 μl of conjugate (Hapten A-HRP) diluted in Tris buffer containing EDTA, D-mannitol, sucrose, thimerosal and BSA, was added to each of the wells. The appropriate dilution of conjugate was also determined using standard ELISA checkerboard techniques. The plate was incubated at 25° C. for 1 hour. The excess unbound conjugate was removed by washing 6 times over a 10-minute period with TBST and tapped dry. 125 μl of tetramethylbenzedine (TMB) substrate solution was added to each well of the plate that was then incubated for 15-20 minutes in the dark at room temperature. The reaction was terminated by addition of 125 μl of 0.2M sulphuric acid to each well. The absorbance was then measured at 450 nm using a microtiter plate reader.
(§2) Employing each series of standards, calibration curves were generated and these were used to determine the specificity of the immunoassay for the JWH synthetic cannabinoids, metabolites and selected molecules. The results of this study are presented in Tables 1 to 3, cross-reactivity being calculated according to the following formula: % CR=IC50,JWH-018/IC50,CR×100
(§3) Where % CR is the percentage cross-reactivity, IC50, JWH-018 is the concentration of JWH-018 that causes 50% displacement of signal and IC50, CR is the concentration of JWH synthetic cannabinoid/metabolite/selected molecule that causes 50% displacement of signal.
Table 1: Data generated from a competitive microtiter plate assay for JWH synthetic cannabinoids and metabolites, employing antiserum raised to Immunogen II (Hapten B-BTG) and conjugate (Hapten A-HRP) as detection reagent.
(d) The resulting competitive ELISA for synthetic cannabinoids and metabolites was also employed to test for the 5-fluoropentyl derivative of JWH-018, (1-(5-fluoropentyl)indol-3yl (1-naphthyl) methanone (Table 4).

[3] = tested on: antibodies raised to Immunogens I & II; assay: Competitive ELISA, selected molecules as potential cross-reactants (Table 3)
Protocol: as §1, §2, §3
The antibody produced from Immunogen I is able to bind to JWH molecules known to be incorporated in herbal therapeutics such as JWH-018, proposed metabolites such as M2 (Wintermeyer et al 2010), and potential metabolites such as M5. The detection and quantification of other JWH SSCs is also provided for, the antibodies of the invention bind a range of molecules comprising the 3-(1-naphthoyl)-1H-indole structure (e.g. JWH-071, JWH-398, M1 etc.). […] The concept of using the antibodies of the invention to detect and determine future stealth synthetic cannabinoids is highlighted in Table 4; the 5-fluoropentyl derivative known to bind the CB 1 receptor, but which as of yet has not been detected in herbal therapeutics or similar substances, binds to antibodies raised from Immunogens I and II.

[4] = Antibody to Immunogen II, cross-reactants at 100 ng/ml, 1000 ng/ml, standard JWH-018
[5] = Table 1, CR based on 100% for JWH-018
[6] = Table 1, detecting agent derived from Hapten-A, 40 ng/ml highest concentration tested
[7] = Table 4, Immunogen II, relative to JWH-018

Compound	% B/B0 [1, 4] [%]	% Cross-reactivity [2, 5]	IC50 [2, 6]	further results
CCCCn1cc(C(=O)c2cccc3ccccc23)c2ccccc21 [JWH-073]	15.24	135.26%	1.56 ng/mL	–
CCCCCn1cc(C(=O)c2cccc3ccccc23)c2cc(O)ccc21 [5-OH JWH-018, JWH-018 5-hydroxyindole metabolite]	12.14	130.25%	1.62 ng/mL	–
O=C(c1cccc2ccccc12)c1cn(CCCCCF)c2ccccc12 [AM-2201, 1-(5-Fluoropentyl)indol-3-yl (1-naphthyl) methanone]	11.72	–	–	binding / cross-reaction with antibodies raised from Immunogens I and II (in words) [3]: binds; IC50 ([2]; Table 4, Immunogen II): 0.22 ng/mL; % Cross-reactivity [2, 7]: 908.00%
O=C(O)CCCCn1cc(C(=O)c2cccc3ccccc23)c2ccccc21 [JWH-018 N-pentanoic acid metabolite]	85.61	38.50%	5.48 ng/mL	binding / cross-reaction with antibodies raised from Immunogens I and II (in words) [3]: bind
CCCCCn1cc(C(=O)c2cccc3ccccc23)c2c(O)cccc21 [4-OH JWH-018, JWH-018 4-hydroxyindole metabolite]	29.49	23.03%	9.16 ng/mL	–
O=C(c1cccc2ccccc12)c1cn(CCCCCO)c2ccccc12 [JWH-018 N-(5-hydroxypentyl) metabolite]	53.38	183.48%	1.15 ng/mL	–
O=C(c1cccc2ccccc12)c1cn(CCN2CCOCC2)c2ccccc12 [JWH-200]	54.02	127.11%	1.66 ng/mL	–
CCCCCn1cc(C(=O)c2ccc(Cl)c3ccccc23)c2ccccc21 [JWH-398]	30.31	12.02%	17.55 ng/mL	binding / cross-reaction with antibodies raised from Immunogens I and II (in words) [3]: bind
CCCCCn1cc(C(=O)c2cccc3ccccc23)c2ccc(O)cc21 [6-OH JWH-018, JWH-018 6-hydroxyindole metabolite]	24.39	215.31%	0.98 ng/mL	–
O=C(c1cccc2ccccc12)c1c[nH]c2ccccc12 [N-desalkyl JWH-018, 3-(1-naphthoyl)-1H-Indole]	99.18	<<5.28%	>>40 ng/ml	–
CCCCCn1cc(C(=O)c2cccc3ccccc23)c2ccccc21 [JWH-018]	9.29	100.00%	2.11 ng/mL	% B/B0 ([1]; JWH-018 0.625 ng/ml): 68%; % B/B0 ([1]; JWH-018 1.25 ng/ml): 53%; % B/B0 ([1]; JWH-018 2.5 ng/ml): 34%; % B/B0 ([1]; JWH-018 5 ng/ml): 25%; % B/B0 ([1]; JWH-018 10 ng/ml): 17%; % B/B0 ([1]; JWH-018 20 ng/ml): 13%; % B/B0 ([1]; JWH-018 40 ng/ml): 10%; IC50 ([1]; Table 7 standard curve, standard concentration which produces 50% B/B0): 1.333 ng/mL; IC50 ([2]; Table 4, Immunogen II): 1.97 ng/mL; % Cross-reactivity [2, 7]: 100.00%
